Experimental data as given in patent US20220016098A1, “ORALLY ADMINISTERED PHARMACEUTICAL COMPOSITION COMPRISING FAB I INHIBITORS AND METHOD FOR PREPARING SAME” (priority 2018, published 2022).
Values after ≈ are worked out from the molar mass of the structure shown. Read-outs that look alike come from different tables or passages of the source.

Key:
[1] = Solubility of the compound of formula 1 in various solvents (HPLC); type: physicochemical; details: thermodynamic from solid
Method: Prior to preparing the salt of the compound of formula 1, the compound of formula 1 was analyzed to determine the solubility in various solvents. First, the compound of formula 1 was supersaturated in a pharmaceutically acceptable solvent as shown in Table 5 and stirred in a dark room at room temperature for 12 hours. It was first centrifuged to take a supernatant, and then again filtered with a 0.25 μm PVDF filter to remove insoluble materials remaining in the solution. The filtrate was diluted with methanol and then subjected to HPLC analysis to quantify the solubility. In addition, HPLC analysis conditions are as follows.
20 μL of each of the test solution and the standard solution were tested according to a liquid chromatography method (HPLC) of general test methods of the Korean Pharmacopoeia under the following conditions, and the peak area of the main component of each solution was measured.
Detector: UV spectrophotometer (measurement wavelength 286 nm)
Column: Aegispak C18-L (4.6 mm×250 mm, 5 μm) column
Column temperature: 25° C.
Mobile phase: Acetonitrile:water=3:2

[2] = Solubility in distilled water (Experimental Example 6); type: physicochemical
Method: First, an excess of each substance was added to distilled water and mixed at room temperature for 12 hours. After standing for 2 hours to take the supernatant, it was filtered using a filter having 0.25 μm pores. After diluting this in methanol again, HPLC analysis was performed.

[3] = test system: MRSA strains (methicillin-resistant Staphylococcus aureus); assay: MIC test on MRSA clinical isolates; type: cell-based; details: for MIC: Staphylococcus aureus, MRSA, read-out: MIC60
Method: In order to verify the inhibitory effect of the compound of formula 1 on antibiotic-resistant strains, drug susceptibility was evaluated by treating the compound of formula 1 with Staphylococcus aureus phenotype isolated from each patient. […] Appelbaum at Hershey Hospital, who is recognized for its authority in the field of anti-infection worldwide, and about 100 MRSA strains which is currently socially problematic.

[4] = test system: Staphylococcus aureus ATCC 29213 (MSSA, standard strain); assay: Susceptibility test (MIC), standard strain; type: cell-based
[5] = test system: Staphylococcus aureus 13B-382 (MRSA, clinical strain); assay: Susceptibility test (MIC), clinical strain; type: cell-based

## Cc1c(N)cccc1Cn1ccc(OCCc2cccs2)cc1=O [compound of formula 1, 1-(3-amino-2-methylbenzyl)-4-(2-thiophen-2-yl-ethoxy)-1H-pyridin-2-one]
[1]; PEG 300, organic solvent or mixture, PEG 300, room temperature, read-out: Solubility
  solubility at 12 h: 22000 µg/mL
[1]; dichloromethane, organic solvent or mixture, Dichloromethane, room temperature, read-out: Solubility
  solubility at 12 h: > 50000 µg/mL
[1]; methanol, organic solvent or mixture, Methanol, room temperature, read-out: Solubility
  solubility at 12 h: < 10000 µg/mL
[1]; pH 1.2 aqueous solution, pH 1.2, simulated gastric fluid, pH 1.2 aqueous solution, room temperature, read-out: Solubility
  solubility at 12 h: ~900 µg/mL
[1]; water, Water, room temperature, read-out: Solubility
  solubility at 12 h: 2 µg/mL
[1]; water, distilled water / water (neutral), read-out: Solubility in water
  solubility at 12 h: 2.5 µg/mL
[2]; of the solubility test in distilled water
  pH: 6.8
[2]; pH 6.8, thermodynamic from solid, distilled water, room temperature, 12 hours
  solubility at 12 h: 2.5 µg/mL

## CC[C@H]1OC(=O)[C@H](C)[C@@H](O[C@H]2C[C@@](C)(OC)[C@@H](O)[C@H](C)O2)[C@H](C)[C@@H](O[C@@H]2O[C@H](C)C[C@H](N(C)C)[C@H]2O)[C@](C)(O)C[C@@H](C)CN(C)[C@H](C)[C@@H](O)[C@]1(C)O [Azithromycin]
[3]; Methicillin-resistant, n = 100
  MIC: > 64 µg/mL

## Teicoplanin
[3]; Methicillin-resistant, n = 100
  MIC60: 1.0 µg/mL

## CN[C@H](CC(C)C)C(=O)N[C@H]1C(=O)N[C@@H](CC(N)=O)C(=O)N[C@H]2C(=O)N[C@H]3C(=O)N[C@H](C(=O)N[C@H](C(=O)O)c4cc(O)cc(O)c4-c4cc3ccc4O)[C@H](O)c3ccc(c(Cl)c3)Oc3cc2cc(c3O[C@@H]2O[C@H](CO)[C@@H](O)[C@H](O)[C@H]2O[C@H]2C[C@](C)(N)[C@H](O)[C@H](C)O2)Oc2ccc(cc2Cl)[C@H]1O [Vancomycin]
[4]
  MIC: 0.5 µg/mL (≈ 0.345 µM)
[5]
  MIC: 1 µg/mL (≈ 0.69 µM)
[3]
  MIC: 1 µg/mL (≈ 0.69 µM)

## C[C@H]1COc2c(N3CCN(C)CC3)c(F)cc3c(=O)c(C(=O)O)cn1c23 [Levofloxacin]
[3]; Methicillin-resistant, n = 100
  MIC: 1 µg/mL (≈ 2.77 µM)

## CC(=O)NC[C@H]1CN(c2ccc(N3CCOCC3)c(F)c2)C(=O)O1 [Linezolid]
[3]; Methicillin-resistant, n = 100
  MIC: 1 µg/mL (≈ 2.96 µM)

## CCCCCCCCCC(=O)N[C@@H](Cc1c[nH]c2ccccc12)C(=O)N[C@H](CC(N)=O)C(=O)N[C@@H](CC(=O)O)C(=O)N[C@@H]1C(=O)NCC(=O)N[C@@H](CCCN)C(=O)N[C@@H](CC(=O)O)C(=O)N[C@H](C)C(=O)N[C@@H](CC(=O)O)C(=O)NCC(=O)N[C@H](CO)C(=O)N[C@@H]([C@H](C)CC(=O)O)C(=O)N[C@@H](CC(=O)c2ccccc2N)C(=O)O[C@@H]1C [Daptomycin]
[3]; Methicillin-resistant, n = 100
  MIC: 0.5 µg/mL (≈ 0.309 µM)
